Results published in PubChem BioAssay AID180 (DTP/NCI, 2004).

Test system: BDF1 mice, Adenocarcinoma 755 s.c., tumor weight T/C
Assay: NCI In Vivo Anticancer Drug Screen. Data for tumor model Adenocarcinoma 755 (subcutaneous) in B6D2F1 (BDF1) mice
Details: endpoint: mean tumor weight, higher = larger tumour
Procedure, shortened: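 In vivo antitumor screen on a transplantable tumor line. Result equals the measure in compound-treated animals divided by the same measure in vehicle controls.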

**Q.** `O=C1c2ccccc2C(=O)c2c1c(O)c1ccccc1c2O` was tested. Which T/C (dose: 100.0 mg/kg/injection, schedule: Q#A X022 (im), vehicle: other) did it give?
**A.** The T/C was 92 % of control.

**Q.** What about the T/C (dose: 100.0 mg/kg/injection, schedule: Q#A X022 (sc), vehicle: other) of the same compound?
**A.** Its T/C is 82 % of control.

**Q.** What about the T/C (dose: 200.0 mg/kg/injection, schedule: Q#A X022 (im), vehicle: other) of the same compound?
**A.** The T/C was 79 % of control.

**Q.** What about the T/C (dose: 200.0 mg/kg/injection, schedule: Q#A X022 (sc), vehicle: other) of the same compound?
**A.** The T/C was 82 % of control.

**Q.** What about the T/C (dose: 300.0 mg/kg/injection, schedule: Q#A X022 (im), vehicle: other) of the same compound?
**A.** Its T/C is 73 % of control.

**Q.** And the T/C (dose: 300.0 mg/kg/injection, schedule: Q#A X022 (ip), vehicle: other)?
**A.** Its T/C is 29 % of control.

**Q.** What about the T/C (dose: 300.0 mg/kg/injection, schedule: Q#A X022 (sc), vehicle: other) of the same compound?
**A.** Its T/C is 52 % of control.

**Q.** What about the T/C (dose: 400.0 mg/kg/injection, schedule: Q#A X022 (im), vehicle: other) of the same compound?
**A.** The T/C was 73 % of control.

**Q.** And the T/C (dose: 400.0 mg/kg/injection, schedule: Q#A X022 (sc), vehicle: other)?
**A.** The T/C was 68 % of control.

**Q.** `CC(Nc1ncnc2nc[nH]c12)C(=O)O` (centres undefined) was tested. Which T/C (dose: 25.0 mg/kg/injection, schedule: Q01DX011 (ip), vehicle: saline) did it give?
**A.** Its T/C is 114 % of control.

**Q.** What about the T/C (dose: 75.0 mg/kg/injection, schedule: Q01DX011 (ip), vehicle: saline) of the same compound?
**A.** The T/C was 86 % of control.

**Q.** And the T/C (dose: 225.0 mg/kg/injection, schedule: Q01DX011 (ip), vehicle: saline)?
**A.** The T/C was 20 % of control.

**Q.** How did the T/C (dose: 15.0 mg/kg/injection, schedule: Q01DX011 (ip), vehicle: methylcellulose (MC)) turn out when `O=C(Nc1ccc(C2=NCCN2)cc1)c1cc(Cl)c(C(=O)Nc2ccc(C3=NCCN3)cc2)cc1Cl` was run?
**A.** The T/C was 105 % of control.

**Q.** What about the T/C (dose: 30.0 mg/kg/injection, schedule: Q01DX011 (ip), vehicle: methylcellulose (MC)) of the same compound?
**A.** Its T/C is 68 % of control.
